Results as given in US20090143285A1, “TARGET PROTEIN AND TARGET GENE FOR DRUG DISCOVERY AND SCREENING METHOD” (REVERSE PROTEOMICS RESEARCH INSTITUTE CO., LTD., priority 2005, published 2009).
Entries after “also recorded” stand apart in the source; their conditions may differ. Read-outs that look alike come from different tables or passages of the source.

Experiments:
[1] = target: T1, FLJ36526-derived protein (Homo sapiens, UniProt Q9UNZ2, D290N/L361F); assay: SEC/MS interaction analysis, FLJ36526-derived protein (NSFL1 (p97) cofactor (p47)); type: binding; settings: TSKgel super SW2000 micro-LC column (1.0 mm ID×30 mm); presence vs absence of protein; data not shown
T1 construct: His-tag (N); made in house; host or cells: Escherichia coli BL21star(DE3)pLysS
T1 sequence (Q9UNZ2 1-370 D290N/L361F): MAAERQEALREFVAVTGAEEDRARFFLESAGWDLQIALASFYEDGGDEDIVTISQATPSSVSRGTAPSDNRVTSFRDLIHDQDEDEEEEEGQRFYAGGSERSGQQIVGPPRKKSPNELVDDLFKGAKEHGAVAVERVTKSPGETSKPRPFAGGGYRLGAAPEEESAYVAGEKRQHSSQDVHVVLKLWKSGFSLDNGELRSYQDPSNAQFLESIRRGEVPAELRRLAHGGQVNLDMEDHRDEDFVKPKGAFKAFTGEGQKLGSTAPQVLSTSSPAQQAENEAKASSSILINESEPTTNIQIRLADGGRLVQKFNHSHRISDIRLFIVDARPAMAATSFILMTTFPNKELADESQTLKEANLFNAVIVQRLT
Text: (§1) The specific procedures are shown below.

[2] = target: T2, FLJ39553-derived protein (Homo sapiens, UniProt Q6P6B1, N326S); assay: SEC/MS interaction analysis, FLJ39553-derived protein (hypothetical protein FLJ39553); type: binding; settings: TSKgel super SW2000 micro-LC column (1.0 mm ID×30 mm); presence vs absence of protein; data not shown
T2 construct: His-tag (N); made in house; host or cells: Escherichia coli BL21star(DE3)pLysS
T2 sequence (Q6P6B1 1-374 N326S): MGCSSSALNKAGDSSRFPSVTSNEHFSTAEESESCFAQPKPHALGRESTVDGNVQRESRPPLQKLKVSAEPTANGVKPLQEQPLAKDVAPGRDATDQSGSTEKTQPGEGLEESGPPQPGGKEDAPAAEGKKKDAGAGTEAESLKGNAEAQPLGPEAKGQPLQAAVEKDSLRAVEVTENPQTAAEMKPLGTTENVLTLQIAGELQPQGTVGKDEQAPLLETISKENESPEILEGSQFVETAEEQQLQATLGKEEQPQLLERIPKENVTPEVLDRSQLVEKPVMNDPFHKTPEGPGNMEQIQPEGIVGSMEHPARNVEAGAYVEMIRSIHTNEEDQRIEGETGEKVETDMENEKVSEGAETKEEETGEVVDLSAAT
Text: (§2) To analyze the interactions between commonly used drugs and proteins expressed from human full-length cDNA clones while keeping both the proteins and the compounds in non-modified, non-immobilized state, size exclusion chromatography (SEC) and mass analysis were used in combination. The specific procedures are shown below.
(§3) The compound-protein mixture prepared in step 1 was subjected to chromatography using an SEC column, the compound and the protein were separated by SEC, and the compound that interacted with the bound compound or protein contained in the protein fraction was analyzed using a mass analyzer.
(§4) Protein concentrations were measured using BCA Protein Assay (PIERCE), in consideration of the purity calculated by SDS-PAGE.
Mass analysis was performed using LCQ DECA XP (Thermoelectron) or Q-TOF micro (Micromass), equipped with an ESI probe. […]
In the 384-well spin column method, Unifilter 100 (Whatman), packed with 10 μL (dry volume) of Bio-Gel P6 (BIO-RAD) and swollen with milliQ water, was used as the SEC column. […] 2-μL of mass analysis samples were injected using an autosampler at 2-minute intervals; the mass spectral intensity of the compound was measured to retrieve the spectral intensity of the pharmaceutical compound contained in the SEC spin column filtrate (protein fraction eluted from SEC).

[3] = target: T3, FLJ35914-derived protein (Homo sapiens, UniProt Q9HB65, DEL362-362); assay: SEC/MS interaction analysis, FLJ35914-derived protein (ELL3); type: binding; settings: TSKgel super SW2000 micro-LC column (1.0 mm ID×30 mm); presence vs absence of protein; data not shown
T3 construct: His-tag (N); made in house; host or cells: Escherichia coli BL21star(DE3)pLysS
T3 sequence (Q9HB65 with tags, fused parts or gaps DEL362-362): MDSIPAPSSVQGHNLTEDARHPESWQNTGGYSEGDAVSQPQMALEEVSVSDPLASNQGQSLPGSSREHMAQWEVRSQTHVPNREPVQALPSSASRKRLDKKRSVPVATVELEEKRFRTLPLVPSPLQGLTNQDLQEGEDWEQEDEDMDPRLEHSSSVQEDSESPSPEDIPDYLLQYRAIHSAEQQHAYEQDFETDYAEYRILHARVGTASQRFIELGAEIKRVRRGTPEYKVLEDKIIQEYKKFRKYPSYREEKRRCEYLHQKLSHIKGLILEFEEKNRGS
Text: as §1

[4] = system: FLJXXXXX-derived proteins; assay: SEC/MS spin column interaction analysis of FLJXXXXX-derived proteins and various compounds (Tables 30-1 to 30-4); type: binding, human
[5] = target: T4, FLJ38531-derived protein (Homo sapiens, UniProt Q9BVM4); assay: Biacore dissociation constant (KD) measurement, FLJ38531-derived protein; type: binding; settings: FLJ38531-derived protein (SEQ ID NO 13)
T4 construct: His-tag (N); made in house; host or cells: Escherichia coli BL21star(DE3)pLysS
T4 sequence (Q9BVM4 1-153): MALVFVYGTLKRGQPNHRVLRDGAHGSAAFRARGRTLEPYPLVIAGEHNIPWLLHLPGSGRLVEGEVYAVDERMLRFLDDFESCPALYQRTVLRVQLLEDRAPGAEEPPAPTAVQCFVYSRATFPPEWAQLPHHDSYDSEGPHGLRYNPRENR
Text: This washing operation was repeated as required.

[6] = target: T4, FLJ38531-derived protein; assay: SEC/MS interaction analysis, FLJ38531-derived protein (hypothetical protein BC004360); type: binding
Text: as §2, §3, §4
Mass analysis was performed using LCQ DECA XP (Thermoelectron) or Q-TOF micro (Micromass), equipped with an ESI probe. The LC pump used was Agilent 1100 (Yokogawa Analytical Systems), and the autosampler used was HTC-PAL (CTC Analytics) equipped with a cooling stacker. The SEC column used was a micro-LC column or a 384-well spin column. […]
In the 384-well spin column method, Unifilter 100 (Whatman), packed with 10 μL (dry volume) of Bio-Gel P6 (BIO-RAD) and swollen with milliQ water, was used as the SEC column. […] The SEC spin column was mounted on an acetonitrile-aliquoted 384-well U-bottom plate and centrifuged; the SEC spin column filtrate, which is a protein fraction, was recovered in 50% acetonitrile. The protein precipitate produced by the acetonitrile was removed via centrifugation and filtration for deproteinization; the resulting filtrate was concentrated by centrifugal concentration and re-dissolved in 10 μL of 50% methanol to obtain a mass analysis sample. The mobile phase supplied to the mass analyzer was 0.1% formic acid/50% methanol solution in the positive ion mode, and 0.1% ammonia/50% methanol solution in the negative ion mode; these mobile phases were used at a flow rate of 40 μL/min. 2-μL of mass analysis samples were injected using an autosampler at 2-minute intervals; the mass spectral intensity of the compound was measured to retrieve the spectral intensity of the pharmaceutical compound contained in the SEC spin column filtrate (protein fraction eluted from SEC).

Compound	interaction judged from mass chromatogram of the compound (elution from SEC micro-LC column) [1]	interaction judged from mass chromatogram of the compound (elution from SEC micro-LC column) [2]	interaction judged from mass chromatogram of the compound (elution from SEC micro-LC column) [3]	FLJ No of the derived protein with which the compound was judged to exhibit a concentration-dependent interaction [4]	Kd [5]	spectrum intensity of the compound in the SEC spin column filtrate ([6]; compound 12.5 μM, protein 0 μM)	spectrum intensity of the compound in the SEC spin column filtrate ([6]; compound 12.5 μM, protein 5 μM)	spectrum intensity of the compound in the SEC spin column filtrate ([6]; compound 12.5 μM, protein 10 μM)	spectrum intensity of the compound in the SEC spin column filtrate ([6]; compound 12.5 μM, protein 25 μM)	spectrum intensity of the compound in the SEC spin column filtrate ([6]; compound 25 μM, protein 0 μM)	spectrum intensity of the compound in the SEC spin column filtrate ([6]; compound 25 μM, protein 5 μM)	spectrum intensity of the compound in the SEC spin column filtrate ([6]; compound 25 μM, protein 10 μM)	spectrum intensity of the compound in the SEC spin column filtrate ([6]; compound 25 μM, protein 25 μM)	spectrum intensity of the compound in the SEC spin column filtrate ([6]; compound 62.5 μM, protein 0 μM)	spectrum intensity of the compound in the SEC spin column filtrate ([6]; compound 62.5 μM, protein 5 μM)	spectrum intensity of the compound in the SEC spin column filtrate ([6]; compound 62.5 μM, protein 10 μM)	spectrum intensity of the compound in the SEC spin column filtrate ([6]; compound 62.5 μM, protein 25 μM)	interaction judged from spectrum intensity of the compound in the SEC spin column filtrate (protein fraction eluted from SEC) ([6]; spin column method, doses of both compound and protein varied)	FLJ No of the derived protein with which the compound was judged to exhibit a concentration-dependent interaction ([4]; SEC spin column filtrate, spectral intensity increased with doses of compound and protein)
C/C1=C2N=C(/C=C3N=C(/C(C)=C4\[N-][C@@](C)([C@@H]5N=C1[C@](C)(CCC(=O)NC[C@@H](C)OP(=O)([O-])O[C@H]1[C@@H](O)[C@@H](n6cnc7cc(C)c(C)cc76)O[C@@H]1CO)[C@H]5CC(N)=O)[C@@](C)(CC(N)=O)[C@@H]4CCC(N)=O)[C@@](C)(CC(N)=O)[C@@H]\3CCC(N)=O)C(C)(C)[C@@H]/2CCC(N)=O.[Co+3].[OH-] [hydroxocobalamin]	there was an interaction	there was an interaction	there was an interaction	FLJ35914; also recorded: FLJ36526; also recorded: FLJ39553															
O=C(O)c1cc(/N=N/c2ccc(S(=O)(=O)Nc3ccccn3)cc2)ccc1O [sulfasalazine]					8.9 µM	59203	261679	686531	2048630	53384	401351	946518	2600573	179387	688076	1418687	3155516	concentration-dependent interaction	FLJ38531
